One assay addresses T1, hNPFFR2 (Homo sapiens, UniProt Q9Y5X5).
T1 construct: expressed in transfected cells; membranes
The assay is described as follows: Radioligand binding competition, membranes from CHO cells expressing hNPFFR2. Particulars: 0.015 nM [D-Tyr1[125I], N-MePhe3]-NPFF, 1 hr at 25° C., read-out: NPFF2-R Ki. The essentials:
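CHO membranes (5–10 μg protein) stably expressing hNPFFR1 or hNPFFR2 incubated 1 h at 25 °C with 0.015 nM [D-Tyr1[125I], N-MePhe3]-NPFF in HEPES pH 7.4 with Ca2+, Mg2+, 0.1% BSA. Non-specific binding defined with 10 μM RFRP-3; bound radioactivity counted after GF/B filtration.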

Assay [1] relates to C57BF6/N male mice. Put plainly: Incisional pain model, Von Frey test. It counts as in vivo.
The test system of assay [2] is C57BF6/N male mice. Put plainly: Morphine-induced hyperalgesia and tolerance, tail immersion test. It counts as in vivo.
Assay [3] has as its system NPFFR1 KO and wild-type littermates. The assay is described as follows: Morphine-induced hyperalgesia and tolerance in NPFF1R knockout mice and WT littermates. The class given is in vivo.
The test system of assay [4] is C57BF6/N male mice. Put plainly: Fentanyl-induced hyperalgesia, tail immersion test. The class given is in vivo. The note with it: for Hyperalgesia index (HI) d1 to d4: 1j 5 mg/kg p.o. or vehicle 35 min before fentanyl 4×60 μg/kg s.c.

Molecules are shown by their SMILES.

T1 sequence (Q9Y5X5 whole entry): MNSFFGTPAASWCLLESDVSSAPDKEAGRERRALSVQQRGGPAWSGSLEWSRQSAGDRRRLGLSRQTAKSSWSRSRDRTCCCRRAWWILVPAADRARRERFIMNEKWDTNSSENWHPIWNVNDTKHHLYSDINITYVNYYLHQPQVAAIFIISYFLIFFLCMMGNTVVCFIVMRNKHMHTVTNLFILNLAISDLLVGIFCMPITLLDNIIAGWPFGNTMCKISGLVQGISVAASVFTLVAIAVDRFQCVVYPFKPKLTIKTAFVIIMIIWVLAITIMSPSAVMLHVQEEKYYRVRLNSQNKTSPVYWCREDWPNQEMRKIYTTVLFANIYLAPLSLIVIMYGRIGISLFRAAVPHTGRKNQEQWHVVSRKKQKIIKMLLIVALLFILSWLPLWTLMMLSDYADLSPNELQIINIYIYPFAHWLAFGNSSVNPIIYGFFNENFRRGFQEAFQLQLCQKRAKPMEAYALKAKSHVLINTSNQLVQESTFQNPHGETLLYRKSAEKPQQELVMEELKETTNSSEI

By Ki is commonly meant the equilibrium dissociation constant of an inhibitor or competing ligand from its target. One may read the ED50 as the dose that gives a 50% effect, or the effect in half of the subjects. In the case of `Nc1ccc(-c2cccc(Cl)c2Cl)c(N)n1` [Compound 1j, 3-(2,3-dichlorophenyl)pyridine-2,6-diamine], the Ki at hNPFFR2 worked out at 2 µM. The “mechanical allodynia after paw incision (allodynia index d1-d6), drug alone” value in the assay on C57BF6/N male mice [1] (morphine 2.5 mg/kg sc. alone or 1j 5 mg/kg po alone, FIG. 3B) was “slightly attenuated but not significantly the mechanical allodynia”. Further, the “mechanical allodynia after paw incision (allodynia index d1-d6), pre-treatment before morphine” value with C57BF6/N male mice [1] (mouse, in vivo) is recorded as “significantly enhanced morphine effect at preventing the mechanical allodynia”. In the assay on C57BF6/N male mice [2] (daily morphine 10 mg/kg s.c., 1j 5 mg/kg oral or vehicle before morphine, FIG. 2B), the “Hyperalgesia index (HI) d1 to d7” value is 0.1±3. Also, in the assay with C57BF6/N male mice [2] (mouse, in vivo), the “morphine analgesia at day 0, effect of co-administration” value was “not significantly modified”; the “peak of analgesia at day 0” value came to 19±0.8; the “peak of analgesia at day 8” value came out at 14±0.9. Further, the “morphine-induced hyperalgesia in NPFF1R KO mice” value in assay [3] (NPFF1R KO, 1j 5 mg/kg oral before daily morphine 10 mg/kg s.c., FIG. 5B, C) was “did not show any significant effect”. In assay [3] (WT littermates, 1j 5 mg/kg oral before daily morphine 10 mg/kg s.c., FIG. 5B, C), the “morphine-induced hyperalgesia in WT mice” value was “significantly attenuated this hyperalgesia”. For the same compound, in assay [3] (WT littermates, morphine 5 mg/kg s.c., 1j 5 mg/kg oral, FIG. 5D), the “morphine analgesia at day 8 in WT mice (tolerance)” value is “failed to restore morphine analgesia at day 8”. Besides, in the assay with C57BF6/N male mice [4] (5 mg/kg sc. 20 min before fentanyl 4×60 μg/kg sc., FIG. 6B), the “fentanyl hyperalgesia (hyperalgesia index d1 to d4)” value was “significant anti-hyperalgesic effect”. The “development of hyperalgesia induced by fentanyl, dose effect” value in the assay with C57BF6/N male mice [4] (0.2, 1 and 5 mg/kg, sc, 20 min before fentanyl, FIG. 1E, F) is “dose-dependently prevented”. The “analgesic effect of fentanyl (AUC)” value in the assay with C57BF6/N male mice [4] (1j 5 mg/kg p.o. in Kolliphor EL or vehicle before fentanyl 4×60 μg/kg s.c., FIG. 1C) is listed as 11.4±3. In the assay on C57BF6/N male mice [4] (Mus musculus, sc, doses 0.2, 1 and 5 mg/kg, FIG. 1E, read-out: ED50, prevention of fentanyl-induced hyperalgesia), the ED50 is approximately 0.5 mg/kg. Further, the “effect of compound alone on basal nociceptive response” value with C57BF6/N male mice [4] (mice, tail immersion 48° C., FIG. 1A) is on record as “did not have any effect”. In addition, in the assay on C57BF6/N male mice [4] (vehicle Kolliphor EL), the “Hyperalgesia index (HI) d1 to d4” value was −1.8±1.2. The “Hyperalgesia index (HI) d1 to d4” value in the assay with C57BF6/N male mice [4] (vehicle tween 80) amounted to 2.2±0.3.

The record behind these values is patent US20210221784A1, “COMPOUNDS AND COMPOSITIONS FOR THE TREATMENT OF PAIN” (Université de Strasbourg, priority 2018, published 2021).
